# Like-named read-outs stand apart in the source and are kept apart here.
# System: hematopoietic system damage model in which the mouse has been exposed to cyclophosphamide
# Type: in vivo, KM mice
# Design: unit not given here
structure (smiles),measurement,setting,value
C#C[C@]1(O)[C@H](O)C[C@H]2[C@@H]3CCc4cc(OC5CCCC5)ccc4[C@H]3CC[C@@]21C [Nilestriol],peripheral blood WBC,"nilestriol 10 mg/kg group, normal (before modeling)",13.8 ± 2.5 ×10^12
same,peripheral blood WBC,"nilestriol 10 mg/kg once 6 h after cyclophosphamide, 1 d after modeling",3.6 ± 0.9 ×10^12
same,peripheral blood WBC,"nilestriol 10 mg/kg once 6 h after cyclophosphamide, 4 d after modeling",3.5 ± 2.5 ×10^12
same,peripheral blood WBC,"nilestriol 10 mg/kg once 6 h after cyclophosphamide, 6 d after modeling",8.0 ± 2.5 ×10^12
same,peripheral blood WBC,"nilestriol 10 mg/kg once 6 h after cyclophosphamide, 12 d after modeling",12.0 ± 5.9 ×10^12

# From patent US12090176B2 (priority 2019, dated 2024)
